From US20230248657A1, “METHODS OF ADMINISTERING TASTE MASKED PHENYLBUTYRATE AND COMPOSITIONS THEREFOR” (Acer Therapeutics Inc., priority 2020, published 2023)

Experiment: Multi-dose plasma PK of PBA, GPB vs. BUPHENYL (NaPB), TID, fed
Format: in vivo, human
Conditions: GPB avg. dose 13.5 TID, N = 44, arithmetic mean

O=C(CCCc1ccccc1)OCC(COC(=O)CCCc1ccccc1)OC(=O)CCCc1ccccc1 [GPB, glycerol phenylbutyrate]
Plasma PBA AUC0-24: 443 µg·h/mL | Plasma PBA Cmax: 51.9 µg/mL | Plasma PBA Tmax: 8.0 h
